Counter-ions that a name gives are not always drawn. Like-named read-outs stand apart in the source and are kept apart here.
Tests used:
[1] = system: rabbits with intact skin; conditions: in vivo
Text: (§1) The irritation results are reported as either irritating (+) or non-irritating (-), and the penetration results are reported as either good (+) or poor (-). […] Eight young adult New Zealand white rabbits were assigned to two groups. The rabbits were housed in stainless steel cages and maintained under standard laboratory conditions. Each cage was identified with a color coded label indicating the test substance, rabbit number, sex, and study number. Food and water were supplied ad libitum. On the day of dosing, the back of each rabbit was clipped free of hair. […] To prevent removal, the chambers were covered with an orthopedic stockinette and secured by a canvas coat.

[2] = pH 7.4
Text: The irritation results are reported as either irritating (+) or non-irritating (-), and the penetration results are reported as either good (+) or poor (-). […] The skin penetration assembly used was similar to that described by Franz (J. Invest. Derm., 64:190, 1975). Excised defatted human skin was stretched across a reservoir containing a phosphate buffer solution . (pH 7.4, 0.02M) in direct contact with the dermal side of the skin. The temperature of this buffer solution was maintained at 37± 0.5°C by circulating water at the appropriate temperature through a jacket which surrounds each assembly. Freshly made preparation was applied to the statum corneum surface. The buffer solution was removed in its entirety and replaced with fresh solution at various time intervals and assayed for azatadine content.

[3] = system: rabbits with intact skin; assay: Screening of antihistamines for dermal irritation (24/72 hour screen, Draize grading); conditions: 24/72 hour dermal irritation screen in rabbits with intact skin; formulation strength as given in the label
Text: as §1

Compound	Rabbit Dermal Irritation [1]	also measured
CN(C)CC[C@@H](c1ccc(Br)cc1)c1ccccn1 [Dexbrompheniramine (10%), Dexbrompheniramine]	(+)	
Cc1ccc(/C(=C\CN2CCCC2)c2ccccn2)cc1 [Triprolidine HCl]	(+)	
CN1CCC(=C2c3ccccc3CCc3cccnc32)CC1 [Azatadine, 6,11-diydro-11-(1-methyl-4-piperidylidene)-5H-benzo[5,6]cyclohepta[1,2-b]pyridine]		dermal irritation and/or sensitization ([1]; rabbit): no dermal irritation and/or sensitization; In Vitro Dermal Penetration [2]: (+)
CN(C)CCOC(C)(c1ccccc1)c1ccccn1 (stereo not shown) [Doxylamine succinate]	(+)	
CN(C)CCC(c1ccc(Cl)cc1)c1ccccn1 (stereo not shown) [Chlorpheniramine base (patch), Chlorpheniramine]		In Vitro Dermal Penetration [2]: (+); Rabbit Dermal Irritation [3]: (+)
CC(CN1c2ccccc2Sc2ccccc21)N(C)C (stereo not shown) [Promethazine HCl]	(+)	
CN1CCC(=C2c3ccccc3C=Cc3ccccc32)CC1 [Cyprhoheptadine HCl]		Rabbit Dermal Irritation [3]: (+)
CN(C)CC[C@@H](c1ccc(Cl)cc1)c1ccccn1 [Dexchlorpheniramine base, Dexchlorpheniramine]		Rabbit Dermal Irritation [3]: (+)
CN(C)CCOC(c1ccc(Cl)cc1)c1ccccn1 (stereo not shown) [Carbinoxamine maleate]	(+)	
CN1CCC(OC(c2ccccc2)c2ccccc2)CC1 [Diphenylpyraline HCl]	(+)	
CC(C1=C(CCN(C)C)Cc2ccccc21)c1ccccn1 (stereo not shown) [Dimethindine maleate]	(+)	

Source: patent publication EP0188538B1, “TRANSDERMAL DELIVERY OF AZATADINE” (priority 1984, dated 1986)
